A short description of the assay: Inhibition of PAF-induced platelet aggregation.

As a reminder, the IC50 is the concentration needed to halve the response being measured. A high value points to lower potency.

In turn, `C#CC(c1cccnc1C)N1CCN(C(=O)CNC(c2ccccc2)c2ccccc2)CC1` (stereo unspecified) [2-(Benzhydryl-amino)-1-{4-[1-(2-methyl-pyridin-3-yl)-prop-2-ynyl]-piperazin-1-yl}-ethanone] showed an IC50 of 860 nM. As for `CNC(=O)C(CC(=O)N1CCN(C(C#N)c2cccnc2C)CC1)c1ccccc1` (stereo unspecified) [4-{4-[Cyano-(2-methyl-pyridin-3-yl)-methyl]-piperazin-1-yl}-N-methyl-4-oxo-2-phenyl-butyramide], inhibition was half-maximal at 15200 nM (IC50). The same measure for `Cc1ncccc1C(C#N)N1CCN(C(=O)CC(NCc2cccnc2)c2ccccc2)CC1` (stereo unspecified) [(2-Methyl-pyridin-3-yl)-(4-{3-phenyl-3-[(pyridin-3-ylmethyl)-amino]-propionyl}-piperazin-1-yl)-acetonitrile]: 75 nM. `Cc1ncccc1C(C#N)N1CCN(C(=O)CC(Nc2ccccc2)c2ccccc2)CC1` (stereo unspecified) [(2-Methyl-pyridin-3-yl)-[4-(3-phenyl-3-phenylamino-propionyl)-piperazin-1-yl]-acetonitrile] displayed an IC50 of 28 nM. Compound `C#CCNC(CC(=O)N1CCN(C(C#N)c2cccnc2C)CC1)c1ccccc1` (stereo unspecified) [(2-Methyl-pyridin-3-yl)-[4-(3-phenyl-3-prop-2-ynylamino-propionyl)-piperazin-1-yl]-acetonitrile] displayed an IC50 of 270 nM.

The compound `Cc1ncccc1C(C#N)N1CCN(C(=O)CC(c2ccccc2)N2CCOC2=O)CC1` (stereo unspecified) [(2-Methyl-pyridin-3-yl)-{4-[3-(2-oxo-oxazolidin-3-yl)-3-phenyl-propionyl]-piperazin-1-yl}-acetonitrile] yielded an IC50 of 63 nM.

The compound `Cc1ncccc1C(C#N)N1CCN(C(=O)CC(c2ccccc2)N2CCCC2=O)CC1` (stereo unspecified) [(2-Methyl-pyridin-3-yl)-{4-[3-(2-oxo-pyrrolidin-1-yl)-3-phenyl-propionyl]-piperazin-1-yl}-acetonitrile] had a half-maximal inhibitory concentration (IC50) of 30 nM. With `Cc1ncccc1C(C#N)N1CCN(C(=O)CC(NC(=O)OCc2ccccc2)c2ccccc2)CC1` (stereo unspecified) [(3-{4-[Cyano-(2-methyl-pyridin-3-yl)-methyl]-piperazin-1-yl}-3-oxo-1-phenyl-propyl)-carbamic acid benzyl ester], 22 nM corresponded to half-maximal inhibition (IC50).

For the compound `CCOC(=O)NC(CC(=O)N1CCN(C(C#N)c2cccnc2C)CC1)c1ccccc1` (stereo unspecified) [(3-{4-[Cyano-(2-methyl-pyridin-3-yl)-methyl]-piperazin-1-yl}-3-oxo-1-phenyl-propyl)-carbamic acid ethyl ester], the IC50 was determined as 14 nM. As for `Cc1ncccc1C(C#N)N1CCN(C(=O)CC(NC(=O)OCC(C)C)c2ccccc2)CC1` (stereo unspecified) [(3-{4-[Cyano-(2-methyl-pyridin-3-yl)-methyl]-piperazin-1-yl}-3-oxo-1-phenyl-propyl)-carbamic acid isobutyl ester], the IC50 came out at 36 nM. Compound `COC(=O)NC(CC(=O)N1CCN(C(C#N)c2cccnc2C)CC1)c1ccccc1` (stereo unspecified) [(3-{4-[Cyano-(2-methyl-pyridin-3-yl)-methyl]-piperazin-1-yl}-3-oxo-1-phenyl-propyl)-carbamic acid methyl ester] returned an IC50 of 41 nM. In the case of `Cc1ncccc1C(C#N)N1CCN(C(=O)CC(NC(=O)Oc2ccccc2)c2ccccc2)CC1` (stereo unspecified) [(3-{4-[Cyano-(2-methyl-pyridin-3-yl)-methyl]-piperazin-1-yl}-3-oxo-1-phenyl-propyl)-carbamic acid phenyl ester], the IC50 is 16 nM. As for `Cc1ncccc1C(C#N)N1CCN(C(=O)CC(NC(=O)OC(C)(C)C)c2ccccc2)CC1` (stereo unspecified) [(3-{4-[Cyano-(2-methyl-pyridin-3-yl)-methyl]-piperazin-1-yl}-3-oxo-1-phenyl-propyl)-carbamic acid tert-butyl ester], the figure is 56 nM; as for `COC(=O)N(C)C(CC(=O)N1CCN(C(C#N)c2cccnc2C)CC1)c1ccccc1` (stereo unspecified) [(3-{4-[Cyano-(2-methyl-pyridin-3-yl)-methyl]-piperazin-1-yl}-3-oxo-1-phenyl-propyl)-methyl-carbamic acid methyl ester], 20 nM. The same measure for `Cc1ncccc1C(C#N)N1CCN(C(=O)CC(NC(N)=O)c2ccccc2)CC1` (stereo unspecified) [(3-{4-[Cyano-(2-methyl-pyridin-3-yl)-methyl]-piperazin-1-yl}-3-oxo-1-phenyl-propyl)-urea]: 470 nM; for `COC(=O)N(Cc1ccccc1)C(CC(=O)N1CCN(C(C#N)c2cccnc2C)CC1)c1ccccc1` (stereo unspecified) [Benzyl-(3-{4-[cyano-(2-methyl-pyridin-3-yl)-methyl]-piperazin-1-yl}-3-oxo-1-phenyl-propyl)-carbamic acid methyl ester]: 68 nM.

On to `CC(=O)NC(CC(=O)N1CCN(C(C#N)c2cccnc2C)CC1)c1ccccc1` (stereo unspecified) [N-(3-{4-[Cyano-(2-methyl-pyridin-3-yl)-methyl]-piperazin-1-yl}-3-oxo-1-phenyl-propyl)-acetamide], for which the half-maximal inhibitory concentration (IC50) stood at 31 nM. With `Cc1ncccc1C(C#N)N1CCN(C(=O)CC(NC(=O)c2ccccc2)c2ccccc2)CC1` (stereo unspecified) [N-(3-{4-[Cyano-(2-methyl-pyridin-3-yl)-methyl]-piperazin-1-yl}-3-oxo-1-phenyl-propyl)-benzamide], the midpoint of inhibition, the IC50, lay at 9.1 nM. `Cc1ncccc1C(C#N)N1CCN(C(=O)CC(NC(=O)c2cccnc2)c2ccccc2)CC1` (stereo unspecified) [N-(3-{4-[Cyano-(2-methyl-pyridin-3-yl)-methyl]-piperazin-1-yl}-3-oxo-1-phenyl-propyl)-nicotinamide] came in with an IC50 of 8.9 nM.

`CC(=O)N(CC(=O)N1CCN(C(C#N)c2cccnc2C)CC1)C(c1ccccc1)c1ccccc1` (stereo unspecified) [N-Benzhydryl-N-(2-{4-[cyano-(2-methyl-pyridin-3-yl)-methyl]-piperazin-1-yl}-2-oxo-ethyl)-acetamide]: the IC50 is 20 nM. Compound `Cc1ncccc1C(C#N)N1CCN(C(=O)CN(C=O)C(c2ccccc2)c2ccccc2)CC1` (stereo unspecified) [N-Benzhydryl-N-(2-{4-[cyano-(2-methyl-pyridin-3-yl)-methyl]-piperazin-1-yl}-2-oxo-ethyl)-formamide] displayed an IC50 of 30 nM. Consider `Cc1ncccc1C(C#N)N1CCN(C(=O)CC(NC(=O)N2CCCC2)c2ccccc2)CC1` (stereo unspecified) [Pyrrolidine-1-carboxylic acid (3-{4-[cyano-(2-methyl-pyridin-3-yl)-methyl]-piperazin-1-yl}-3-oxo-1-phenyl-propyl)-amide], for which half-maximal inhibition (IC50) was put at 64 nM. The compound `COC(=O)NC(CC(=O)N1CCN(C(C#N)c2cccnc2C)CC1)c1ccc(C(F)(F)F)cc1` (stereo unspecified) [[3-{4-[Cyano-(2-methyl-pyridin-3-yl)-methyl]-piperazin-1-yl}-3-oxo-1-(4-trifluoromethyl-phenyl)-propyl]-carbamic acid methyl ester] returned an IC50 of 12 nM. The compound `Cc1ncccc1C(C#N)N1CCN(C(=O)COC(c2ccccc2)c2ccccc2)CC1` (stereo unspecified) [[4-(2-Benzhydryloxy-acetyl)-piperazin-1-yl]-(2-methyl-pyridin-3-yl)-acetonitrile] displayed a half-maximal inhibitory concentration (IC50) of 42 nM. As for `Cc1ncccc1C(C#N)N1CCN(C(=O)CSC(c2ccccc2)c2ccccc2)CC1` (stereo unspecified) [[4-(2-Benzhydrylsulfanyl-acetyl)-piperazin-1-yl]-(2-methyl-pyridin-3-yl)-acetonitrile], the figure is 79 nM; as for `Cc1ncccc1C(C#N)N1CCN(C(=O)CNC(c2ccc(F)cc2)c2ccc(F)cc2)CC1` (stereo unspecified) [[4-(2-{[Bis-(4-fluoro-phenyl)-methyl]-amino}-acetyl)-piperazin-1-yl]-(2-methyl-pyridin-3-yl)-acetonitrile], 150 nM.

The values are drawn from BindingDB's records for doi:10.1021/jm00072a019 (J. Uriach & Cía., 1993).
